Legend:
[1] = target: MYO3A (MYO3 alpha) (Homo sapiens, UniProt Q8NEV4); experiment: SelectScreen kinase profiling, LanthaScreen binding
[2] = target: STK25 (YSK1) (Homo sapiens, UniProt O00506); experiment: SelectScreen kinase profiling, ZLYTE; type: biochemical
Text: (§1) Kinase Technology % Inhibition Avg Kinase Technology % Inhibition Avg […]

[3] = target: STK3 (MST2) (Homo sapiens, UniProt Q13188); experiment: SelectScreen kinase profiling, ZLYTE; type: biochemical
Text: as §1

[4] = target: SYK (Homo sapiens, UniProt P43405); experiment: SelectScreen kinase profiling, ZLYTE; type: biochemical
Text: as §1

[5] = target: TXK (Homo sapiens, UniProt P42681); experiment: SelectScreen kinase profiling, ZLYTE; type: biochemical
Text: as §1

[6] = target: TYK2 (Homo sapiens, UniProt P29597); experiment: SelectScreen kinase profiling, ZLYTE; type: biochemical; settings: TYK2, 10 µM
Text: as §1

[7] = target: STK24 (MST3) (Homo sapiens, UniProt Q9Y6E0); experiment: SelectScreen kinase profiling, ZLYTE; type: biochemical
Text: as §1

[8] = target: STK4 (MST1) (Homo sapiens, UniProt Q13043); experiment: SelectScreen kinase profiling, ZLYTE; type: biochemical
Text: as §1

[9] = target: TEK (TIE2) Y897S (Homo sapiens, UniProt Q02763, Y897S); experiment: SelectScreen kinase profiling, ZLYTE; type: biochemical
Text: as §1

[10] = target: TBK1 (Homo sapiens, UniProt Q9UHD2); experiment: SelectScreen kinase profiling, ZLYTE; type: biochemical; settings: TBK1, 10 µM
Text: as §1

[11] = target: TAOK2 (TAO1) (Homo sapiens, UniProt Q9UL54); experiment: SelectScreen kinase profiling, ZLYTE; type: biochemical
Text: as §1

[12] = target: TNK1 (Homo sapiens, UniProt Q13470); experiment: SelectScreen kinase profiling, ZLYTE; type: biochemical; settings: TNK1, 10 µM
Text: as §1

[13] = target: TEK (Tie2) (Homo sapiens, UniProt Q02763); experiment: SelectScreen kinase profiling, ZLYTE; type: biochemical
Text: as §1

[14] = target: TYRO3 (RSE) (Homo sapiens, UniProt Q06418); experiment: SelectScreen kinase profiling, ZLYTE; type: biochemical
Text: as §1

[15] = target: PKN2 (PRK2) (Homo sapiens, UniProt Q16513); experiment: SelectScreen kinase profiling, LanthaScreen binding
[16] = target: AMPK (A1/B1/G3) (Homo sapiens, UniProt Q13131); experiment: as above
[17] = target: hERG channel (Homo sapiens, UniProt Q12809); experiment: Predictor hERG fluorescence polarization assay; settings: 10000nM
[18] = target: ALK L1196M (Homo sapiens, UniProt Q9UM73, L1196M); experiment: SelectScreen kinase profiling, LanthaScreen binding
[19] = target: PDK1 Direct (Homo sapiens, UniProt O15530); experiment: SelectScreen kinase profiling, ZLYTE; type: biochemical
[20] = target: CDK11/cyclin C (Homo sapiens, UniProt Q9BWU1); experiment: SelectScreen kinase profiling, LanthaScreen binding
[21] = target: MAPK1 (ERK2) (Homo sapiens, UniProt P28482); experiment: SelectScreen kinase profiling, ZLYTE; type: biochemical
[22] = target: ACVR1 (ALK2) R206H (Homo sapiens, UniProt Q04771, R206H); experiment: SelectScreen kinase profiling, LanthaScreen binding
[23] = target: MST4 (Homo sapiens, UniProt Q9P289); experiment: SelectScreen kinase profiling, ZLYTE; type: biochemical; settings: MST4, 10 µM
[24] = target: CAMK2B (CaMKII beta) (Homo sapiens, UniProt Q13554); experiment: SelectScreen kinase profiling, ZLYTE; type: biochemical
[25] = target: WNK3 (Homo sapiens, UniProt Q9BYP7); experiment: SelectScreen kinase profiling, LanthaScreen binding; settings: WNK3, 10 µM
Text: as §1

[26] = target: TLK2 (Homo sapiens, UniProt Q86UE8); experiment: as above; settings: TLK2, 10 µM
Text: as §1

[27] = target: TEK (TIE2) R849W (Homo sapiens, UniProt Q02763, R849W); experiment: as above
Text: as §1

[28] = target: CYP2D6 (Homo sapiens, UniProt P10635); experiment: SelectScreen P450 Vivid biochemical assay; settings: 10000nM; substrate EOMCC
[29] = target: MASTL (Homo sapiens, UniProt Q96GX5); experiment: SelectScreen kinase profiling, LanthaScreen binding
[30] = target: CAMK2A (CaMKII alpha) (Homo sapiens, UniProt Q9UQM7); experiment: SelectScreen kinase profiling, ZLYTE; type: biochemical
[31] = target: FGFR2 N549H (Homo sapiens, UniProt P21802, N549H); experiment: SelectScreen kinase profiling, ZLYTE; type: biochemical
[32] = target: DYRK1B (Homo sapiens, UniProt Q9Y463); experiment: SelectScreen kinase profiling, ZLYTE; type: biochemical
[33] = target: LRRK2 I2020T (Homo sapiens, UniProt Q5S007, I2020T); experiment: SelectScreen kinase profiling, Adapta; type: biochemical
[34] = target: CDC42 BPG (MRCKG) (Homo sapiens, UniProt Q6DT37); experiment: SelectScreen kinase profiling, ZLYTE; type: biochemical
[35] = target: STK17B (DRAK2) (Homo sapiens, UniProt O94768); experiment: SelectScreen kinase profiling, LanthaScreen binding
[36] = target: MAPK10 (JNK3) (Homo sapiens, UniProt P53779); experiment: SelectScreen kinase profiling, ZLYTE; type: biochemical
[37] = target: GSK3B (GSK3 beta) (Homo sapiens, UniProt P49841); experiment: SelectScreen kinase profiling, ZLYTE; type: biochemical
[38] = target: LRRK2 R1441C (Homo sapiens, UniProt Q5S007, R1441C); experiment: SelectScreen kinase profiling, Adapta; type: biochemical
[39] = target: RAF1 (cRAF) Y340D Y341D (Homo sapiens, UniProt P04049, Y340D/Y341D); experiment: SelectScreen kinase profiling, LanthaScreen binding

## O=C(c1ccc(/C=C/c2n[nH]c3ccccc23)cc1)N1CCNCC1 [KW-2449]
[1]
  inhibition at 10 µM: 59%
[2]
  inhibition at 10 µM: 45%
[3]
  inhibition at 10 µM: 77%
[4]
  inhibition at 10 µM: 98%
[5]
  inhibition at 10 µM: 94%
[6]
  inhibition at 10 µM: 99%
[7]
  inhibition at 10 µM: 85%
[8]
  inhibition at 10 µM: 93%
[9]
  inhibition at 10 µM: 80%
[10]
  inhibition at 10 µM: 99%
[11]
  inhibition at 10 µM: 87%
[12]
  inhibition at 10 µM: 94%
[13]
  inhibition at 10 µM: 99%
[14]
  inhibition at 10 µM: 92%
[15]
  inhibition at 10 µM: 65%
[16]
  inhibition at 10 µM: 71%
[17]
  hERG % Inhibition: 19%
[18]
  inhibition at 10 µM: 13%
[19]
  inhibition at 10 µM: 103%
[20]
  inhibition at 10 µM: 53%
[21]
  inhibition at 10 µM: 45%
[22]
  inhibition at 10 µM: 69%
[23]
  inhibition at 10 µM: 92%
[24]
  inhibition at 10 µM: 32%
[25]
  inhibition at 10 µM: 7%
[26]
  inhibition at 10 µM: 33%
[27]
  inhibition at 10 µM: -5%
[28]
  % Inhibition 2D6 EOMCC: 1%
[29]
  inhibition at 10 µM: 83%
[30]
  inhibition at 10 µM: 67%
[31]
  inhibition at 10 µM: 94%
[32]
  inhibition at 10 µM: 91%
[33]
  inhibition at 10 µM: 100%
[34]
  inhibition at 10 µM: 68%
[35]
  inhibition at 10 µM: 58%
[36]
  inhibition at 10 µM: 59%
[37]
  inhibition at 10 µM: 66%
[38]
  inhibition at 10 µM: 100%
[39]
  inhibition at 10 µM: 0%

— article PMC6540285, “Evaluation of Protein Kinase Inhibitors with PLK4 Cross-Over Potential in a Pre-Clinical Model of Cancer” (International Journal of Molecular Sciences, 2019)
